Test results: US7153869B2, “Substituted amino acids as erythropoietin mimetics” (priority 1998, dated 2006)
Read-outs that look alike come from different tables or passages of the source.

Target: T1, EBP-Ig (N-terminal 225 amino acids of the human EPO receptor joined to an Ig heavy chain) (Homo sapiens, UniProt P19235)
T1 construct: Ig heavy chain (fusion partner); made in house; host or cells: NSO cells (secreted into conditioned media)
T1 sequence (P19235 25-250 limits assumed): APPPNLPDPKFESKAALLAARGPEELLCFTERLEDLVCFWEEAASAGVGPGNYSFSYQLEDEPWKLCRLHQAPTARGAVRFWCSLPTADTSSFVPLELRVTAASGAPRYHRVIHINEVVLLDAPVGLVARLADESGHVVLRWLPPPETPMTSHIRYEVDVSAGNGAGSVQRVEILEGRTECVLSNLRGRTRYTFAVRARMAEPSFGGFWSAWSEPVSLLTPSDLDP
Assay: Inhibition of [125I]EPO binding to immobilized EBP-Ig (EPO binding protein-Ig), scintillation Flash plate competition assay
Details: for % inh @ 50 μM (Inhibition of EPO binding to EBP-Ig): 50 μM test compound, average % inhibition; for IC30 μM (Inhibition of EPO binding to EBP-Ig): 0–500 μM test compound
From the text: The interaction of biotin and streptavidin is frequently employed to capture and effectively immobilize reagents useful in assay protocols and has been employed here as a simple method to capture and immobilize EBP-Ig. EBP-Ig is initially randomly modified with an amine reactive derivative of biotin to produce biotinylated-EBP-Ig. Use of streptavidin coated plates allows the capture of the biotinylated EBP-Ig on the surface of a scintillant impregnated coated well (Flash plates, NEN-DuPont). […] The amount of light produced was quantified to estimate the amount of ligand binding. The specific assay format was suitable for the multi-well plate capacity of a Packard TopCount Microplate Scintillation counter.
Biotinylated EBP-Ig was prepared as follows. EBP-Ig (3 mL, OD280 2.9) was exchanged into 50 mM sodium bicarbonate, pH 8.5 using a Centriprep 10 ultrafiltration device. The final volume of the exchanged protein was 1.2 mL (OD280 2.6, representing about 2 mg total protein). 10 μL of a 4 mg/ml solution of NHS-LC-Biotin (Pierce) was added and the reaction mixture placed on ice in the dark for two hours. Unreacted biotin was removed by exchange of the reaction buffer into PBS in a Centriprep 10 device and the protein reagent aliquoted and stored at −70° C.
All wells were adjusted to a final DMSO concentration of 5%. […] After all additions were made, the plate was covered with an adhesive top seal and placed in the dark at room temperature overnight. The next day all liquid was aspirated from the wells to limit analyte dependent quench of the signal, and the plates were counted on a Packard TOPCOUNT Microplate Scintillation Counter. […] Corrected total binding (CTB) was calculated as: TB−NSB=CTB. […] Table 1 lists the average % inhibition, and if determined the IC50 and IC30 values for compounds of Formula I, where the compound numbers refer to the compounds in the tables accompanying the preparative examples.

[1] = read-out: % inh @ 50 μM (Inhibition of EPO binding to EBP-Ig)
[2] = read-out: EPO/EBP-Ig % inh @ 50 μM, 50 μM compound, Table 10
[3] = read-out: IC50, μM (Inhibition of EPO binding to EBP-Ig), 0.5 nM [125I]EPO, concentration reducing corrected total binding to 50%

COc1cccc(CCNC(=O)C(CCCCN)N(C/C=C/c2ccc([N+](=O)[O-])cc2)C/C=C/c2ccc([N+](=O)[O-])cc2)c1 (centres unmarked) [compound 233]
EPO/EBP-Ig % inh @ 50 μM (50 μM compound, Table 10): 18%

CC(C)(C)OC(=O)CCC(NCC=Cc1cccc(Oc2ccccc2)c1)C(=O)O (centres unmarked) [cpd 337, N-(3-Phenoxycinnamyl)Glu(O-t-Bu)-OH]
EPO/EBP-Ig % inh @ 50 μM (50 μM compound, Table 19A): 0%

CCOC(=O)c1ccc(NC(=O)NCCCCC(C(=O)NCCc2ccc(OC)cc2)N(C/C=C/c2ccccc2)C/C=C/c2ccccc2)cc1 (centres unmarked) [compound 231]
EPO/EBP-Ig % inh @ 50 μM (50 μM compound, Table 10): 36%
% inh @ 50 μM (Inhibition of EPO binding to EBP-Ig) (0.5 nM [125I]EPO): 36%

COc1ccccc1CCNC(=O)C(CCCCN)N(CC=Cc1ccccc1)CC=Cc1ccccc1 (centres unmarked) [compound 224]
IC30 μM (Inhibition of EPO binding to EBP-Ig) (0.5 nM [125I]EPO): 25 µM
inhibition at 50 µM [1]: 51%
inhibition at 50 µM [2]: 51%
IC50 [3]: 50 µM

Cc1ccc(S(=O)(=O)Nc2cccc(CN(Cc3cccc(NS(=O)(=O)c4ccc(C)cc4)c3)C(CC(=O)O)C(=O)O)c2)cc1 (centres unmarked) [compound 65]
EPO/EBP-Ig % inh @ 50 μM (Table 4, 50 μM): −7%

O=C(O)CCC(C(=O)O)N(C/C=C/c1ccc(NC(=O)C(F)(F)C(F)(F)F)cc1)Cc1ccc(OCc2ccccc2)cc1 (centres unmarked) [compound 84]
EPO/EBP-Ig % inh @ 50 μM (Table 5, 50 μM): 14%

COC(=O)[C@H](Cc1c[nH]c2ccccc12)NC/C=C/c1ccccc1 [compound 364]
EPO/EBP-Ig % inh @ 50 μM (50 μM compound): 16%

CC(C)(C)OC(=O)NCCCCC(C(=O)NCCOCCOCCNC(=O)C(CCCCNC(=O)OC(C)(C)C)N(Cc1ccc(OCc2ccccc2)cc1)Cc1ccc(OCc2ccccc2)cc1)N(Cc1ccc(OCc2ccccc2)cc1)Cc1ccc(OCc2ccccc2)cc1 (centres unmarked) [compound 260]
EPO/EBP-Ig % inh @ 50 μM (50 μM compound, Table 13): −12%

COc1ccc(CCNC(=O)C(CCCCN)N(CC=Cc2ccccc2)CC=Cc2ccccc2)cc1 (centres unmarked) [compound 211]
IC30 μM (Inhibition of EPO binding to EBP-Ig) (0.5 nM [125I]EPO): 20 µM
inhibition at 50 µM [1]: 62%
inhibition at 50 µM [2]: 62%
IC50 [3]: 65 µM

O=C(O)CCC(C(=O)O)N(C/C=C/c1ccc(NC(=O)c2ccncc2)cc1)Cc1ccc(OCc2ccccc2)cc1 (centres unmarked) [compound 86]
% inh @ 50 μM (Inhibition of EPO binding to EBP-Ig) (0.5 nM [125I]EPO): 37%
EPO/EBP-Ig % inh @ 50 μM (Table 5, 50 μM): 37%

COC(=O)C(CCC(=O)O)N(C/C=C/c1cccs1)C/C=C/c1cccs1 (centres unmarked) [compound 61]
EPO/EBP-Ig % inh @ 50 μM (Table 3, 50 μM): 14%

O=C(O)CCC(=O)NCCCCC(C(=O)NCCCOCCOCCOCCCNC(=O)C(CCCCNC(=O)CCC(=O)O)N(Cc1ccc(OCc2ccccc2)cc1)Cc1ccc(OCc2ccccc2)cc1)N(Cc1ccc(OCc2ccccc2)cc1)Cc1ccc(OCc2ccccc2)cc1 (centres unmarked) [compound 271]
IC30 μM (Inhibition of EPO binding to EBP-Ig) (0.5 nM [125I]EPO): 2 µM
EPO/EBP-Ig % inh @ 50 μM (50 μM compound, Table 13): 77%
% inh @ 50 μM (Inhibition of EPO binding to EBP-Ig) (0.5 nM [125I]EPO): 77%
IC50 [3]: 7 µM

O=C(O)CC(C(=O)NCCCOCCOCCOCCCNC(=O)C(CC(=O)O)N(Cc1ccc(OCc2ccccc2)cc1)Cc1ccc(OCc2ccccc2)cc1)N(Cc1ccc(OCc2ccccc2)cc1)Cc1ccc(OCc2ccccc2)cc1 (centres unmarked) [compound 244]
IC50: 28 µM
IC30 μM (Inhibition of EPO binding to EBP-Ig) (0.5 nM [125I]EPO): 1 µM
inhibition at 50 µM [1]: 66%
inhibition at 50 µM (read-out: EPO/EBP-Ig % inh @ 50 μM, Table 11, 50 μM): 66%

COC(=O)C(CCCCN)N(Cc1ccc(OCc2ccccc2)cc1)Cc1cccc(N)c1 (centres unmarked) [compound 115]
inhibition at 50 µM [1]: 35%
inhibition at 50 µM (read-out: EPO/EBP-Ig % inh @ 50 μM, Table 7, 50 μM): 35%

CC(C)C[C@H](NC/C=C/c1ccc(C(F)(F)F)cc1)C(=O)O.O=C(O)C(F)(F)F [compound 369]
EPO/EBP-Ig % inh @ 50 μM (50 μM compound): 12%

O=C(O)CCCC(=O)Nc1ccc(/C=C/CN(Cc2ccc(OCc3ccccc3)cc2)C(CCC(=O)O)C(=O)O)cc1 (centres unmarked) [compound 83]
EPO/EBP-Ig % inh @ 50 μM (Table 5, 50 μM): 18%

CC(C)(C)OC(=O)CC(C(=O)NCCCCCCCCCCCCNC(=O)C(CC(=O)OC(C)(C)C)N(C/C=C/c1cccc(Oc2ccc(C(C)(C)C)cc2)c1)C/C=C/c1cccc(Oc2ccc(C(C)(C)C)cc2)c1)N(C/C=C/c1cccc(Oc2ccc(C(C)(C)C)cc2)c1)C/C=C/c1cccc(Oc2ccc(C(C)(C)C)cc2)c1 (centres unmarked) [compound 255]
EPO/EBP-Ig % inh @ 50 μM (50 μM compound, Table 12): 0%

COc1ccc(CCNC(=O)C(CCCCNC(=O)Nc2ccc(Oc3ccccc3)cc2)N(C/C=C/c2cccc(Oc3ccccc3)c2)C/C=C/c2cccc(Oc3ccccc3)c2)cc1 (centres unmarked) [compound 232]
EPO/EBP-Ig % inh @ 50 μM (50 μM compound, Table 10): 14%

O=C(O)CCCC(=O)NCCCCC(C(=O)NCCCCCCCCCCCCNC(=O)C(CCCCNC(=O)CCCC(=O)O)N(Cc1ccc(OCc2ccccc2)cc1)Cc1ccc(OCc2ccccc2)cc1)N(Cc1ccc(OCc2ccccc2)cc1)Cc1ccc(OCc2ccccc2)cc1 (centres unmarked) [compound 269]
IC30 μM (Inhibition of EPO binding to EBP-Ig) (0.5 nM [125I]EPO): 8 µM
IC50 [3]: 85 µM

COC(=O)[C@H](COC(C)(C)C)N(C/C=C/c1ccccc1)C/C=C/c1ccccc1 [compound 306]
EPO/EBP-Ig % inh @ 50 μM (50 μM compound, Table 16A): 21%

COC(=O)[C@H](CO)NC/C=C/c1cccc(Oc2cccc(C(F)(F)F)c2)c1.O=C(O)C(F)(F)F [compound 344]
EPO/EBP-Ig % inh @ 50 μM (50 μM compound, Table 20A): 4%

COC(=O)[C@H](CO)NC/C=C/c1cccc(Oc2ccc(Cl)c(Cl)c2)c1.O=C(O)C(F)(F)F [compound 345]
EPO/EBP-Ig % inh @ 50 μM (50 μM compound, Table 20A): 40%

COC(=O)C(CCCCN)N(Cc1ccc(OCc2ccccc2)cc1)Cc1cccc(NC(=O)C(C)C)c1 (centres unmarked) [compound 119]
% inh @ 50 μM (Inhibition of EPO binding to EBP-Ig) (0.5 nM [125I]EPO): 34%
EPO/EBP-Ig % inh @ 50 μM (Table 7, 50 μM): 34%

CC(C)(C)c1ccc(Oc2cccc(/C=C/CN(C/C=C/c3cccc(Oc4ccc(C(C)(C)C)cc4)c3)[C@@H](CO)C(=O)O)c2)cc1.O=C(O)C(F)(F)F [compound 309]
EPO/EBP-Ig % inh @ 50 μM (50 μM compound, Table 16A): 13%

COC(=O)[C@H](CO)NC/C=C/c1ccc(-c2ccccc2)cc1.O=C(O)C(F)(F)F [compound 342]
EPO/EBP-Ig % inh @ 50 μM (50 μM compound, Table 20A): 0%

O=C(O)CC(C(=O)O)N(CC=Cc1cccc(Oc2ccccc2)c1)CC=Cc1cccc(Oc2ccccc2)c1 (centres unmarked) [cpd 107, N,N-bis(3-Phenoxycinnamyl)Asp-OH]
IC30 μM (Inhibition of EPO binding to EBP-Ig) (0.5 nM [125I]EPO): 30 µM
% inh @ 50 μM (Inhibition of EPO binding to EBP-Ig) (0.5 nM [125I]EPO): 78%
EPO/EBP-Ig % inh @ 50 μM (Table 6, 50 μM): 78%

O=C(O)C(F)(F)F.O=C(O)CC[C@H](NC/C=C/c1ccc(-c2ccccc2)cc1)C(=O)O [compound 329]
EPO/EBP-Ig % inh @ 50 μM (50 μM compound, Table 19A): 13%

O=C(O)CC(C(=O)O)N(Cc1cccc(NCc2cccc(Cl)c2)c1)Cc1cccc(Oc2ccccc2)c1 (centres unmarked) [compound 66]
EPO/EBP-Ig % inh @ 50 μM (Table 4, 50 μM): −16%

NCCCCC(C(=O)O)N(Cc1cccc(Oc2ccccc2)c1)C(=O)/C=C/c1ccc(Oc2ccccc2)cc1 (centres unmarked) [compound 289]
EPO/EBP-Ig % inh @ 50 μM (50 μM compound, Table 15): 20%

O=C(O)C(F)(F)F.O=C(O)CC[C@H](NC/C=C/c1cccc(Oc2cccc(C(F)(F)F)c2)c1)C(=O)O [compound 330]
EPO/EBP-Ig % inh @ 50 μM (50 μM compound, Table 19A): 12%

COC(=O)C(CCC(=O)OC(C)(C)C)NCC=Cc1cccc(Oc2ccccc2)c1 (centres unmarked) [cpd 334, N-(3-phenoxycinnamyl)Glu(O-t-Bu)-OMe]
EPO/EBP-Ig % inh @ 50 μM (50 μM compound, Table 19A): 6%

CCCCC(=O)Nc1cccc(CN(Cc2ccc(OCc3ccccc3)cc2)C(CCCCN)C(=O)OC)c1 (centres unmarked) [compound 116]
% inh @ 50 μM (Inhibition of EPO binding to EBP-Ig) (0.5 nM [125I]EPO): 32%
EPO/EBP-Ig % inh @ 50 μM (Table 7, 50 μM): 32%

O=C(O)CC(C(=O)O)N(Cc1cccc(NCc2ccccc2F)c1)Cc1cccc(Oc2ccccc2)c1 (centres unmarked) [compound 68]
EPO/EBP-Ig % inh @ 50 μM (Table 4, 50 μM): −13%

CCCNC(=O)C(CCCCN)N(C/C=C/c1ccccc1)C/C=C/c1ccccc1 (centres unmarked) [compound 212]
EPO/EBP-Ig % inh @ 50 μM (50 μM compound, Table 10): −10%

CC(=O)O.COC(=O)[C@H](CO)N(C/C=C/c1cccc(Oc2ccc(Cl)c(Cl)c2)c1)C/C=C/c1cccc(Oc2ccc(Cl)c(Cl)c2)c1 [compound 296]
EPO/EBP-Ig % inh @ 50 μM (50 μM compound, Table 16A): 0%

COC(=O)C(COC(C)(C)C)N(CC=Cc1cccc(Oc2ccccc2)c1)CC=Cc1cccc(Oc2ccccc2)c1 (centres unmarked) [cpd 290, N,N-bis(3-Phenoxycinnamyl)Ser(t-Bu)-OMe]
EPO/EBP-Ig % inh @ 50 μM (50 μM compound, Table 16A): 0%

CC(C)(C)OC[C@@H](C(=O)O)N(C/C=C/c1cccc(Oc2ccc(C(C)(C)C)cc2)c1)C/C=C/c1cccc(Oc2ccc(C(C)(C)C)cc2)c1 [compound 304]
EPO/EBP-Ig % inh @ 50 μM (50 μM compound, Table 16A): 19%

COC(=O)[C@H](CCCCNC(=O)OCc1ccccc1)NC/C=C/c1ccc(OC)cc1 [compound 320]
EPO/EBP-Ig % inh @ 50 μM (50 μM compound, Table 18A): 17%

O=C(O)C(F)(F)F.O=C(O)[C@H](CO)N(C/C=C/c1cccc(Oc2cccc(C(F)(F)F)c2)c1)C/C=C/c1cccc(Oc2cccc(C(F)(F)F)c2)c1 [compound 308]
EPO/EBP-Ig % inh @ 50 μM (50 μM compound, Table 16A): 25%
